Results published in patent US11173162B2, “Bicyclic heterocycles as FGFR4 inhibitors” (Incyte Corporation, priority 2015, dated 2021).

The compounds below were run on FGFR3 enzyme (assay: FGFR Enzymatic Assay (FRET peptide phosphorylation), FGFR3). Details: IC50 ratio showing FGFR3 selectivity; Table 2A, pre-incubated for 4 hours.
Type: biochemical
Experimental: The inhibitor potency of the exemplified compounds was measured in an enzyme assay that measures peptide phosphorylation using FRET measurements to detect product formation. Inhibitors were serially diluted in DMSO and a volume of 0.5 μL was transferred to the wells of a 384-well plate.
GraphPad prism3 was used to analyze the data.

SMILES | FGFR1/FGFR3 | FGFR4/FGFR3
CCn1cc(-c2cc3c(cn2)CN(c2c(F)c(OC)cc(OC)c2F)C(=O)C32CC2)c(C)n1 [Example 158, 2′-(2,6-difluoro-3,5-dimethoxyphenyl)-6′-(1-ethyl-3-methyl-1H-pyrazol-4-yl)-1′H-spiro[cyclopropane-1,4′-[2,7]naphthyridin]-3′(2′H)-one] | >5 | >3
COc1cc(OC)c(F)c(N2Cc3cnc(-c4cn(CC(=O)N5CCOCC5)nc4C)cc3C3(CC3)C2=O)c1F [Example 159, 2′-(2,6-difluoro-3,5-dimethoxyphenyl)-6′-(3-methyl-1-(2-morpholino-2-oxoethyl)-1H-pyrazol-4-yl)-1′H-spiro[cyclopropane-1,4′-[2,7]naphthyridin]-3′(2′H)-one] | >5 | >3
COc1cc(OC)c(F)c(N2Cc3cnc(-c4cnn(CCN5CCC(OC)C5)c4)cc3C3(CC3)C2=O)c1F (stereo not shown) [Example 161, 2′-(2,6-difluoro-3,5-dimethoxyphenyl)-6′-(1-(2-(3-methoxypyrrolidin-1-yl)ethyl)-1H-pyrazol-4-yl)-1′H-spiro[cyclopropane-1,4′-[2,7]naphthyridin]-3′(2′H)-one] | >5 | >3
COc1cc(OC)c(F)c(N2Cc3cnc(-c4cn(C5CCN(C)C5)nc4C)cc3C3(CC3)C2=O)c1F (stereo not shown) [Example 163, 2′-(2,6-difluoro-3,5-dimethoxyphenyl)-6′-(3-methyl-1-(1-methylpyrrolidin-3-yl)-1H-pyrazol-4-yl)-1′H-spiro[cyclopropane-1,4′-[2,7]naphthyridin]-3′(2′H)-one] | >3 | >3
COc1cc(OC)c(F)c(N2Cc3cnc(-c4cn(CCN(C)C)nc4C)cc3C3(CC3)C2=O)c1F [Example 164, 2′-(2,6-difluoro-3,5-dimethoxyphenyl)-6′-(1-(2-(dimethylamino)ethyl)-3-methyl-1H-pyrazol-4-yl)-1′H-spiro[cyclopropane-1,4′-[2,7]naphthyridin]-3′(2′H)-one] | >3 | >3
COc1cc(OC)c(F)c(N2Cc3cnc(-c4cn(CCC5CCNCC5)nc4C)cc3C3(CC3)C2=O)c1F [Example 165, 2′-(2,6-difluoro-3,5-dimethoxyphenyl)-6′-(3-methyl-1-(2-(piperidin-4-yl)ethyl)-1H-pyrazol-4-yl)-1′H-spiro[cyclopropane-1,4′-[2,7]naphthyridin]-3′(2′H)-one] | >3 | >3
COc1cc(OC)c(F)c(N2Cc3cnc(-c4cnn(CC5CN(S(C)(=O)=O)C5)c4)cc3C3(CC3)C2=O)c1F [Example 166, 2′-(2,6-difluoro-3,5-dimethoxyphenyl)-6′-(1-((1-(methylsulfonyl)azetidin-3-yl)methyl)-1H-pyrazol-4-yl)-1′H-spiro[cyclopropane-1,4′-[2,7]naphthyridin]-3′(2′H)-one] | >3 | >3
COc1cc(OC)c(F)c(N2Cc3cnc(-c4cnn(CC5CN(C(C)=O)C5)c4)cc3C3(CC3)C2=O)c1F [Example 167, 6′-(1-((1-acetylazetidin-3-yl)methyl)-1H-pyrazol-4-yl)-2′-(2,6-difluoro-3,5-dimethoxyphenyl)-1′H-spiro[cyclopropane-1,4′-[2,7]naphthyridin]-3′(2′H)-one] | >3 | >3
CCN1C(=O)N(c2c(F)c(OC)cc(OC)c2F)Cc2cnc(-c3cn(CC)nc3C)cc21 [Example 168, 3-(2,6-difluoro-3,5-dimethoxyphenyl)-1-ethyl-7-(1-ethyl-3-methyl-1H-pyrazol-4-yl)-3,4-dihydropyrido[4,3-d]pyrimidin-2(1H)-one] | >5 | >3
CCN1C(=O)N(c2c(F)c(OC)cc(OC)c2F)Cc2cnc(-c3ccc(C(=O)NCCO)nc3)cc21 [Example 177, 5-(3-(2,6-difluoro-3,5-dimethoxyphenyl)-1-ethyl-2-oxo-1,2,3,4-tetrahydropyrido[4,3-d]pyrimidin-7-yl)-N-(2-hydroxyethyl)picolinamide] | >5 | >10
CCN1C(=O)N(c2c(F)c(OC)cc(OC)c2F)Cc2cnc(-c3ccc(C(=O)NC(C)C)nc3)cc21 [Example 178, 5-(3-(2,6-difluoro-3,5-dimethoxyphenyl)-1-ethyl-2-oxo-1,2,3,4-tetrahydropyrido[4,3-d]pyrimidin-7-yl)-N-isopropylpicolinamide] | >5 | >5
CCN1C(=O)N(c2c(F)c(OC)cc(OC)c2F)Cc2cnc(-c3ccc(CC#N)cc3)cc21 [Example 180, 2-(4-(3-(2,6-difluoro-3,5-dimethoxyphenyl)-1-ethyl-2-oxo-1,2,3,4-tetrahydropyrido[4,3-d]pyrimidin-7-yl)phenyl)acetonitrile] | >5 | >5
CCN1C(=O)N(c2c(F)c(OC)cc(OC)c2F)Cc2cnc(-c3ccc(N4CCOCC4)nc3)cc21 [Example 182, 3-(2,6-difluoro-3,5-dimethoxyphenyl)-1-ethyl-7-(6-morpholinopyridin-3-yl)-3,4-dihydropyrido[4,3-d]pyrimidin-2(1H)-one] | >5 | >5
CCN1C(=O)N(c2c(F)c(OC)cc(OC)c2F)Cc2cnc(-c3ccc(C(N)=O)nc3)cc21 [Example 184, 5-(3-(2,6-difluoro-3,5-dimethoxyphenyl)-1-ethyl-2-oxo-1,2,3,4-tetrahydropyrido[4,3-d]pyrimidin-7-yl)picolinamide] | >5 | >5
COc1cc(OC)c(F)c(N2Cc3cnc(-c4ccncc4)cc3C3(CC3)C2=O)c1F [Example 185, 2′-(2,6-difluoro-3,5-dimethoxyphenyl)-6′-(pyridin-4-yl)-1′H-spiro[cyclopropane-1,4′-[2,7]naphthyridin]-3′(2′H)-one] | >3 | >3

The remaining lines, values ahead:

FGFR1/FGFR3 | FGFR4/FGFR3 | SMILES
>5 | >1 | COc1cc(OC)c(F)c(N2Cc3cnc(-c4cn(CCC#N)nc4C)cc3C3(CC3)C2=O)c1F [Example 156, 3-(4-(2′-(2,6-difluoro-3,5-dimethoxyphenyl)-3′-oxo-2′,3′-dihydro-1′H-spiro[cyclopropane-1,4′-[2,7]naphthyridine]-6′-yl)-3-methyl-1H-pyrazol-1-yl)propanenitrile]
>5 | >3 | COc1cc(OC)c(F)c(N2Cc3cnc(-c4cnn(CCN5CCOCC5)c4)cc3C3(CC3)C2=O)c1F [Example 157, 2′-(2,6-difluoro-3,5-dimethoxyphenyl)-6′-(1-(2-morpholinoethyl)-1H-pyrazol-4-yl)-1′H-spiro[cyclopropane-1,4′-[2,7]naphthyridin]-3′(2′H)-one]
>5 | >5 | COc1cc(OC)c(F)c(N2Cc3cnc(-c4csc(N(C)C)n4)cc3C3(CC3)C2=O)c1F [Example 160, 2′-(2,6-difluoro-3,5-dimethoxyphenyl)-6′-(2-(dimethylamino)thiazol-4-yl)-1′H-spiro[cyclopropane-1,4′-[2,7]naphthyridin]-3′(2′H)-one]
>5 | >1 | COc1cc(OC)c(F)c(N2Cc3cnc(-c4cnn(CC5CCCS(=O)(=O)N5)c4)cc3C3(CC3)C2=O)c1F (stereo not shown) [Example 162, 2′-(2,6-difluoro-3,5-dimethoxyphenyl)-6′-{1-[(1,1-dioxido-1,2-thiazinan-3-yl)methyl]-1H-pyrazol-4-yl}-1′H-spiro[cyclopropane-1,4′-[2,7]naphthyridin]-3′(2′H)-one]
>3 | >5 | CCN1C(=O)N(c2c(F)c(OC)cc(OC)c2F)Cc2cnc(-c3cnn(C)c3)cc21 [Example 169, 3-(2,6-difluoro-3,5-dimethoxyphenyl)-1-ethyl-7-(1-methyl-1H-pyrazol-4-yl)-3,4-dihydropyrido[4,3-d]pyrimidin-2(1H)-one]
>10 | >5 | CCNC(=O)c1ccc(-c2cc3c(cn2)CN(c2c(F)c(OC)cc(OC)c2F)C(=O)N3CC)cn1 [Example 175, 5-(3-(2,6-difluoro-3,5-dimethoxyphenyl)-1-ethyl-2-oxo-1,2,3,4-tetrahydropyrido[4,3-d]pyrimidin-7-yl)-N-ethylpicolinamide]
>10 | >5 | CCN1C(=O)N(c2c(F)c(OC)cc(OC)c2F)Cc2cnc(-c3ccc(C(=O)NC4CC4)nc3)cc21 [Example 176, N-cyclopropyl-5-(3-(2,6-difluoro-3,5-dimethoxyphenyl)-1-ethyl-2-oxo-1,2,3,4-tetrahydropyrido[4,3-d]pyrimidin-7-yl)picolinamide]
>5 | >10 | CCCNC(=O)c1ccc(-c2cc3c(cn2)CN(c2c(F)c(OC)cc(OC)c2F)C(=O)N3CC)cn1 [Example 179, 5-(3-(2,6-difluoro-3,5-dimethoxyphenyl)-1-ethyl-2-oxo-1,2,3,4-tetrahydropyrido[4,3-d]pyrimidin-7-yl)-N-propylpicolinamide]
>5 | >10 | CCN1C(=O)N(c2c(F)c(OC)cc(OC)c2F)Cc2cnc(-c3ccc(C4(C#N)CCC4)cc3)cc21 [Example 181, 1-(4-(3-(2,6-difluoro-3,5-dimethoxyphenyl)-1-ethyl-2-oxo-1,2,3,4-tetrahydropyrido[4,3-d]pyrimidin-7-yl)phenyl)cyclobutanecarbonitrile]
>3 | >10 | CCN1C(=O)N(c2c(F)c(OC)cc(OC)c2F)Cc2cnc(-c3ccc(C4(C#N)CC4)cc3)cc21 [Example 183, 1-(4-(3-(2,6-difluoro-3,5-dimethoxyphenyl)-1-ethyl-2-oxo-1,2,3,4-tetrahydropyrido[4,3-d]pyrimidin-7-yl)phenyl)cyclopropanecarbonitrile]
>5 | >5 | COc1cc(OC)c(F)c(N2Cc3cnc(-c4cnn(C)c4)cc3C3(CC3)C2=O)c1F [Example 186, 2′-(2,6-difluoro-3,5-dimethoxyphenyl)-6′-(1-methyl-1H-pyrazol-4-yl)-1′,2′-dihydro-3′H-spiro[cyclopropane-1,4′-[2,7]naphthyridin]-3′-one]
